# Measurements from the NIST ThermoML archive (doi:10.1016/j.jct.2016.10.023).
# ± gives the expanded uncertainty stated by the source.
# Assay: xn = mol fraction of the nth substance listed
# Settings: Constant-volume piezometry
smiles,measurement,setting,value
CCCCC [pentane] + CCCO,mass density,"533.15 K, 7168 kPa, Fluid (supercritical or subcritical phases), x1 = 0.8",234.59 ± 1.2 kg/m3
same,mass density,"533.15 K, 7364 kPa, Fluid (supercritical or subcritical phases), x1 = 0.8",245.22 ± 1.2 kg/m3
same,mass density,"533.15 K, 7629 kPa, Fluid (supercritical or subcritical phases), x1 = 0.2",378.44 ± 1.9 kg/m3
same,mass density,"533.15 K, 7638 kPa, Fluid (supercritical or subcritical phases), x1 = 0.8",258.44 ± 1.3 kg/m3
same,mass density,"533.15 K, 7786 kPa, Fluid (supercritical or subcritical phases), x1 = 0.2",383.24 ± 1.9 kg/m3
same,mass density,"533.15 K, 7963 kPa, Fluid (supercritical or subcritical phases), x1 = 0.8",272.4 ± 1.4 kg/m3
same,mass density,"533.15 K, 8071 kPa, Fluid (supercritical or subcritical phases), x1 = 0.9",281.87 ± 1.4 kg/m3
same,mass density,"533.15 K, 8098 kPa, Fluid (supercritical or subcritical phases), x1 = 0.2",391.08 ± 2 kg/m3
same,mass density,"533.15 K, 8423 kPa, Fluid (supercritical or subcritical phases), x1 = 0.8",288.24 ± 1.4 kg/m3
same,mass density,"533.15 K, 8569 kPa, Fluid (supercritical or subcritical phases), x1 = 0.9",301.54 ± 1.5 kg/m3
same,mass density,"533.15 K, 8748 kPa, Fluid (supercritical or subcritical phases), x1 = 0.8",299.05 ± 1.5 kg/m3
same,mass density,"533.15 K, 9002 kPa, Fluid (supercritical or subcritical phases), x1 = 0.9",312.17 ± 1.6 kg/m3
same,mass density,"533.15 K, 9374 kPa, Fluid (supercritical or subcritical phases), x1 = 0.2",418.49 ± 2.1 kg/m3
same,mass density,"533.15 K, 9413 kPa, Fluid (supercritical or subcritical phases), x1 = 0.8",315.21 ± 1.6 kg/m3
same,mass density,"533.15 K, 10061 kPa, Fluid (supercritical or subcritical phases), x1 = 0.9",333.87 ± 1.7 kg/m3
same,mass density,"533.15 K, 10217 kPa, Fluid (supercritical or subcritical phases), x1 = 0.8",333.69 ± 1.7 kg/m3
same,mass density,"533.15 K, 10835 kPa, Fluid (supercritical or subcritical phases), x1 = 0.8",345.21 ± 1.7 kg/m3
same,mass density,"533.15 K, 11530 kPa, Fluid (supercritical or subcritical phases), x1 = 0.9",353.95 ± 1.8 kg/m3
same,mass density,"533.15 K, 12119 kPa, Fluid (supercritical or subcritical phases), x1 = 0.8",361.76 ± 1.8 kg/m3
same,mass density,"533.15 K, 13530 kPa, Fluid (supercritical or subcritical phases), x1 = 0.2",470.12 ± 2.4 kg/m3
same,mass density,"533.15 K, 17294 kPa, Fluid (supercritical or subcritical phases), x1 = 0.9",407.1 ± 2 kg/m3
same,mass density,"533.15 K, 18236 kPa, Fluid (supercritical or subcritical phases), x1 = 0.8",418.01 ± 2.1 kg/m3
same,mass density,"533.15 K, 19667 kPa, Fluid (supercritical or subcritical phases), x1 = 0.2",509.31 ± 2.6 kg/m3
same,mass density,"533.15 K, 29155 kPa, Fluid (supercritical or subcritical phases), x1 = 0.8",466.47 ± 2.4 kg/m3
same,mass density,"533.15 K, 29696 kPa, Fluid (supercritical or subcritical phases), x1 = 0.2",546.72 ± 2.8 kg/m3
same,mass density,"533.15 K, 39686 kPa, Fluid (supercritical or subcritical phases), x1 = 0.8",495.86 ± 2.5 kg/m3
same,mass density,"533.15 K, 44516 kPa, Fluid (supercritical or subcritical phases), x1 = 0.2",580.98 ± 2.9 kg/m3
same,mass density,"543.15 K, 1370 kPa, Gas, x1 = 0.8",22.5 ± 0.07 kg/m3
same,mass density,"543.15 K, 1634 kPa, Gas, x1 = 0.2",24.9 ± 0.08 kg/m3
same,mass density,"543.15 K, 2088 kPa, Gas, x1 = 0.8",36.65 ± 0.11 kg/m3
same,mass density,"543.15 K, 3070 kPa, Gas, x1 = 0.8",58.36 ± 0.18 kg/m3
same,mass density,"543.15 K, 3378 kPa, Gas, x1 = 0.2",52.95 ± 0.16 kg/m3
same,mass density,"543.15 K, 3671 kPa, Gas, x1 = 0.8",73.72 ± 0.23 kg/m3
same,mass density,"543.15 K, 3909 kPa, Fluid (supercritical or subcritical phases), x1 = 0.9",83.3 ± 0.42 kg/m3
same,mass density,"543.15 K, 4468 kPa, Gas, x1 = 0.2",91.32 ± 0.29 kg/m3
same,mass density,"543.15 K, 4745 kPa, Fluid (supercritical or subcritical phases), x1 = 0.8",106.3 ± 0.54 kg/m3
same,mass density,"543.15 K, 5031 kPa, Fluid (supercritical or subcritical phases), x1 = 0.2",114.24 ± 0.59 kg/m3
same,mass density,"543.15 K, 5063 kPa, Fluid (supercritical or subcritical phases), x1 = 0.9",123.23 ± 0.63 kg/m3
same,mass density,"543.15 K, 5339 kPa, Fluid (supercritical or subcritical phases), x1 = 0.9",133.99 ± 0.68 kg/m3
same,mass density,"543.15 K, 5679 kPa, Fluid (supercritical or subcritical phases), x1 = 0.2",150.2 ± 0.77 kg/m3
same,mass density,"543.15 K, 5755 kPa, Fluid (supercritical or subcritical phases), x1 = 0.8",140.17 ± 0.71 kg/m3
same,mass density,"543.15 K, 6004 kPa, Fluid (supercritical or subcritical phases), x1 = 0.9",163.8 ± 0.83 kg/m3
same,mass density,"543.15 K, 6026 kPa, Fluid (supercritical or subcritical phases), x1 = 0.2",175.44 ± 0.92 kg/m3
same,mass density,"543.15 K, 6054 kPa, Fluid (supercritical or subcritical phases), x1 = 0.8",155.89 ± 0.8 kg/m3
same,mass density,"543.15 K, 6187 kPa, Fluid (supercritical or subcritical phases), x1 = 0.2",189.45 ± 0.98 kg/m3
same,mass density,"543.15 K, 6358 kPa, Fluid (supercritical or subcritical phases), x1 = 0.8",169.62 ± 0.87 kg/m3
same,mass density,"543.15 K, 6471 kPa, Fluid (supercritical or subcritical phases), x1 = 0.2",219.88 ± 1.1 kg/m3
same,mass density,"543.15 K, 6471 kPa, Fluid (supercritical or subcritical phases), x1 = 0.8",175.86 ± 0.89 kg/m3
same,mass density,"543.15 K, 6570 kPa, Fluid (supercritical or subcritical phases), x1 = 0.9",189.27 ± 0.96 kg/m3
same,mass density,"543.15 K, 6584 kPa, Fluid (supercritical or subcritical phases), x1 = 0.8",180.65 ± 0.92 kg/m3
same,mass density,"543.15 K, 6716 kPa, Fluid (supercritical or subcritical phases), x1 = 0.2",245.23 ± 1.3 kg/m3
same,mass density,"543.15 K, 6834 kPa, Fluid (supercritical or subcritical phases), x1 = 0.2",258.94 ± 1.3 kg/m3
same,mass density,"543.15 K, 6836 kPa, Fluid (supercritical or subcritical phases), x1 = 0.8",192.97 ± 0.98 kg/m3
same,mass density,"543.15 K, 6846 kPa, Fluid (supercritical or subcritical phases), x1 = 0.9",202.18 ± 1 kg/m3
same,mass density,"543.15 K, 6875 kPa, Fluid (supercritical or subcritical phases), x1 = 0.2",262.64 ± 1.4 kg/m3
same,mass density,"543.15 K, 6963 kPa, Fluid (supercritical or subcritical phases), x1 = 0.2",272.09 ± 1.4 kg/m3
same,mass density,"543.15 K, 7154 kPa, Fluid (supercritical or subcritical phases), x1 = 0.2",290.25 ± 1.5 kg/m3
same,mass density,"543.15 K, 7246 kPa, Fluid (supercritical or subcritical phases), x1 = 0.9",220.47 ± 1.1 kg/m3
same,mass density,"543.15 K, 7269 kPa, Fluid (supercritical or subcritical phases), x1 = 0.8",213.64 ± 1.1 kg/m3
same,mass density,"543.15 K, 7363 kPa, Fluid (supercritical or subcritical phases), x1 = 0.2",306.52 ± 1.6 kg/m3
same,mass density,"543.15 K, 7405 kPa, Fluid (supercritical or subcritical phases), x1 = 0.8",219.4 ± 1.1 kg/m3
same,mass density,"543.15 K, 7419 kPa, Fluid (supercritical or subcritical phases), x1 = 0.2",310.74 ± 1.6 kg/m3
same,mass density,"543.15 K, 7511 kPa, Fluid (supercritical or subcritical phases), x1 = 0.2",318.45 ± 1.6 kg/m3
same,mass density,"543.15 K, 7520 kPa, Fluid (supercritical or subcritical phases), x1 = 0.9",232.83 ± 1.2 kg/m3
same,mass density,"543.15 K, 7591 kPa, Fluid (supercritical or subcritical phases), x1 = 0.9",236.29 ± 1.2 kg/m3
same,mass density,"543.15 K, 7689 kPa, Fluid (supercritical or subcritical phases), x1 = 0.9",240.69 ± 1.2 kg/m3
same,mass density,"543.15 K, 7747 kPa, Fluid (supercritical or subcritical phases), x1 = 0.8",234.47 ± 1.2 kg/m3
same,mass density,"543.15 K, 7760 kPa, Fluid (supercritical or subcritical phases), x1 = 0.9",244 ± 1.2 kg/m3
same,mass density,"543.15 K, 7964 kPa, Fluid (supercritical or subcritical phases), x1 = 0.2",340.91 ± 1.7 kg/m3
same,mass density,"543.15 K, 7983 kPa, Fluid (supercritical or subcritical phases), x1 = 0.8",245.1 ± 1.2 kg/m3
same,mass density,"543.15 K, 8042 kPa, Fluid (supercritical or subcritical phases), x1 = 0.2",343.7 ± 1.7 kg/m3
same,mass density,"543.15 K, 8294 kPa, Fluid (supercritical or subcritical phases), x1 = 0.8",258.31 ± 1.3 kg/m3
same,mass density,"543.15 K, 8708 kPa, Fluid (supercritical or subcritical phases), x1 = 0.8",272.26 ± 1.4 kg/m3
same,mass density,"543.15 K, 8845 kPa, Fluid (supercritical or subcritical phases), x1 = 0.9",281.73 ± 1.4 kg/m3
